Reference: PMC11885506, “Evaluation of a non-animal toolbox informed by adverse outcome pathways for human inhalation safety” (Frontiers in Toxicology, 2025)
Entries after “also recorded” stand apart in the source; their conditions may differ. Structures can show the parent of a compound that is named as a salt.

What was measured:
[1] = test system: NCI-292 and normal human bronchial epithelial cells; parameters: method as in Deshmukh et al., 2005; settings: ref Deshmukh et al., 2005; cited from earlier work
[2] = test system: human bronchial epithelial cells (BEAS-2B); parameters: method as in Sthijns et al., 2014; settings: 3-10 µM, 30-min exposure; ref Sthijns et al., 2014; cited from earlier work
[3] = test system: MucilAir™-HF tissues; assay: Mucin-5AC (Muc5AC) immunohistochemistry, goblet cells, MucilAir-HF model; format: cell-based, human; settings: 30 min/day exposure, average ± standard deviation
Description: (§1) Tissues were handled as recommended by manufacturer’s instruction.
The presence of goblet cells was assessed through immunohistochemistry analysis for mucin-5AC protein (Muc5AC) detection. IL-13 and cytomix were used as positive controls (see item 2.5.2 for additional details). On last day of experiment (day 12), cultures (n = 3 tissues/group) were rinsed in PBS and fixed by immersion in 4% formaldehyde for 20 min. Fixed tissues were embedded into paraffin, sectioned, and processed for staining on paraffin sections. The immunostaining of the sections was performed with the Benchmark automated platform (Ventana-Roche, Hoffmann-La Roche Ltd, Basel, Switzerland) and the Autostainer Link 48 (Agilent, Santa Clara, CA. United States) with the detection kit Ultraview DAB (DAB chromogeny, Hoffmann-La Roche Ltd). Sections were pre-treated using heat mediated antigen retrieval with sodium citrate buffer, pH 6, for 20 min. The section was then incubated with recombinant anti-mucin 5AC antibody (ab3649, Abcam) for 1 h at room temperature, followed by biotinylated secondary antibody (Dako) and HRP detection (HRP conjugated ABC system, Vector Laboratories), according to manufacturer’s instruction. The section was then counterstained with hematoxylin (Sigma-Aldrich) and mounted with DPX, a synthetic non-aqueous mounting medium for microscopy. Digital images of the slides were then acquired, and quantitative image analysis performed using Image Pro Plus 6.2 (Media Cybernetics) to quantify the goblet cells on a section. The whole images of stained sections were scanned, and an average 15 images/section were analysed. The results are the ratio between the mucin 5AC stained area and the total surface area of the epithelium on the section.

[4] = test system: NCI-H292 cells; settings: 0.03 µM for 4 h; ref Deshmukh et al., 2005; cited from earlier work
[5] = test system: MucilAir™-HF model
Description: (§4) Concentration and time-dependent changes in the bioactivity readout data were analyzed using a nonlinear state space model, based on the work of [Svensson and Schön (2017)]. […] All bioactivity readouts were included in the analysis (where available), i.e., measurements for tissue integrity loss (TEER) and functionality (MCC, CBF, and mucin secretion), cytokine/chemokine secretion, and the transcriptional LV values obtained using PLIER. The datasets were grouped so that a single state space model was used to capture all the responses (across time, concentration, and test material) for a single readout obtained within a particular study (laboratory/tissue model). Data were transformed to the log base 10 scale and normalized using z-scores, so that for a given readout Ytij from a laboratory/tissue model, the corresponding normalized value was given by y^tij=⁡log⁡10(Ytij)−μ)/σ . Here, the indexes i,j,t correspond to the different test materials, concentrations and timepoints, μ and σ are the sample mean and standard deviation of the control readout values obtained for the first timepoint. All measurement were then scaled so that the maximum median value across different replicates was one for all timepoints, readouts and test materials within a given laboratory/tissue model.
The model consists of state variables xti,j , response variables ytij and the concentrations of material c^i,j . The response variables yti,j represent the normalized (see below) readout values at timepoint t for material exposure i,j . The mean of the response variable is given by xti,j , so that yti,j∼xti,j+et , where et represents random fluctuations in the readout values, due to observational noise, which are taken to be normally distributed. Dynamical changes in state values are given by xti,j=fxt−1i,j,cti,j+vt . […] For each state space model representing a particular laboratory/readout dataset, SMC simulation was run for three chains at 5,000 iterations each, and first 1,000 iterations were discarded from the final posterior samples. […]

[6] = test system: MucilAir™-HF tissues
Description: (§5) The MucilAir™-HF system (EP11MD) and ready-to-use chemically-defined, serum-free culture medium (EP04AM) were obtained from Epithelix Sàrl (Geneva, Switzerland). Tissues were handled as recommended by manufacturer’s instruction. […] After differentiation for 42 up to 81 days at the air-liquid interface (ALI) under standard culture conditions (37°C ± 1°C in a humidified atmosphere of 5% ± 1% CO2 in air), tissues were washed 3 days before first exposure and each insert was inspected for beating cilia and mucus production. This washing step (one or twice with PBS) were performed to remove accumulated mucus and cell debris to minimize the risk of interference with the toxicity tests. Over 12-day experimental period, washing steps as well as media changes was performed every 2-3 days.
For toxicity testing performed over a 12-day experimental period, tissues were daily exposed to 3 different concentrations of each test material for 30 min or 6 h (for detailed information on each material see Table 1). […] Tissues were exposed by test materials via nebulization, liquid apical application, or liquid basal application. These differences in the exposure type were due to solubility of the test material, route of exposure (inhaled or systemic), or comparison with previous publications. […]

[7] = test system: MucilAir™-HF tissues; assay: Cytokine and chemokine measurements (Luminex), MucilAir-HF model; format: cell-based, human; settings: for Cytokines/chemokines modulated (in words): MucilAir-HF; for MinPoD: MucilAir™-HF model, biomarker IL-1ra
Description: as §1
Basolateral medium samples of the tissue cultures were collected and stored at −80°C until analysis. The following cytokines/chemokines were quantified using customized Human Luminex® Discovery Assay kits (R&D Systems): chemokine (C-C motif) ligand (CCL) 2, CCL7, CCL26, C-X-C motif chemokine ligand (CXCL) 10, CXCL11, intercellular adhesion molecule-1 (ICAM-1), IL-1α, IL-6, IL-8, matrix metalloproteinase (MMP)-1, MMP-2, MMP-3, MMP-7, MMP-9, osteopontin, interferon (IFN)-γ, IL-1 receptor antagonist (IL-1Ra), urokinase-type plasminogen activator receptor (uPAR), tumour necrosis factor (TNF)-α, urokinase (uPA), serpin E1, tissue inhibitor of metalloproteinase 1 (TIMP-1), and TGF-β1. Samples were measured in technical triplicates according to the manufacturer’s recommendation using a Luminex Bio-Plex® 200 RUO System ([…]).

[8] = test system: Beas2B, HFL-1 and H292 cells; parameters: method as in Gerloff et al., 2017; settings: 10 ng/mL for 24h; ref Gerloff et al., 2017; cited from earlier work
[9] = test system: human airway smooth muscle cells; parameters: method as in McKay et al., 2000; settings: 1-500 U/mL for 24h; ref McKay et al., 2000; cited from earlier work
[10] = test system: EpiAlveolar™ tissues; assay: Cytokine and chemokine measurements (Luminex), EpiAlveolar model, Laboratory 1; format: cell-based, human; settings: for MinPoD: EpiAlveolar™ model Laboratory-1
Text: (§2) EpiAlveolar™ system was obtained from MatTek Corporation (Ashland, MA, United States, cat. no. ALV-100-FT-MAC, ALV-100-FT-MAC-PE12). According to the supplier, the tissue systems were derived from primary human alveolar epithelial cells and primary pulmonary fibroblasts, both from a same healthy donor, and pulmonary endothelial cells from another healthy donor, and THP-1 cell line derived macrophages. These tissues were differentiated by the manufacturer prior to shipping to the testing facilities. […] TEER was measured and only systems with confirmed quality of the tight junction barrier (>300 Ω.cm^2) and with approved morphological inspection were used in the experiments.
(§3) Vehicle control groups were also tested in parallel. Except for Doxorubicin (which underwent a 6-day chemical exposure + 6-day without exposure), exposures were conducted daily, on 12 consecutive days with different concentrations, through aerosol, apical or basolateral liquid exposure methods (Table 2). […] Each of the insert holders of the instrument base module was filled with Hanks’ Balanced Salt solution (HBSS) or PBS prior to placing the tissue inserts. Then, each test item solution/suspension was placed into the nebulizer reservoir for aerosol material exposure. The nebulizer was activated until the material solution/suspension was consumed and discharged into the main exposure chamber and allowed to fully gravity deposit out of the Cloud 12 (determined using a QCM). After exposure, the tissues were placed back into their multi-well culture plates containing the same medium, a further aliquot of media was added apically (20 µL for Akemi, 75 µL for all others except LPS) and returned to incubator until next exposure. Media used during the 6- or 12-day experimental period was prepared without Supplement X by MatTek. In medium exposure, the apical or basolateral liquid of each tissue was removed and replaced with each test item medium solution/suspension and returned to the incubator until the next exposure. After the beginning of the exposure cycles, tissues were only re-fed with new culture medium every 3-4 days.
In Laboratory 1, basal media samples collected from the tissues were collected and stored at ≤ −60°C until analysis. For cytokine/chemokine measurements, 17-Plex, duplex and single-plex analyte detection panels were run on the samples using Human Luminex™ Multiplex Immunoassay kits (R&D Systems). The analytes quantified were TNF-α, IL-6, MMP-9, MMP-3, MMP-1, MMP-2, CXCL10, CCL2, IFN-γ, IL-1ra, CCL7, IL-1a, CCL26, CXCL9, VCAM-1, ICAM-1, and CXCL11 in a 17-plex assay; whereas IL-8 and Serpin E1 in a duplex assay and TGF-β1 in a single-plex assay.

[11] = test system: EpiAlveolar™ tissues; assay: Cytokine and chemokine measurements (Luminex), EpiAlveolar model, Laboratory 2; format: cell-based, human; settings: for MinPoD: EpiAlveolar™ model Laboratory-2
Text: as §2, §3
In Laboratory 2, apical culture media samples of the tissues were collected, stored at −80°C until shipment, in dry ice with temperature monitor control, to Unilever SERS, where the analyses were performed. Upon receipt, samples were again stored in the −80°C until the analysis using Human Luminex® Discovery Assay kits (R&D Systems). The same readouts investigated for MucilAir™-HF tissue samples were quantified in these samples.

[12] = test system: EpiAlveolar™ model; assay: Bioactivity exposure ratio (BER): lowest in vitro PoD of EpiAlveolar readouts / lower respiratory tract exposure estimate or Cmax; parameters: species or system human; settings: Plasma
Description: as §4
The model consists of state variables xti,j , response variables ytij and the concentrations of material c^i,j . The response variables yti,j represent the normalized (see below) readout values at timepoint t for material exposure i,j . The mean of the response variable is given by xti,j , so that yti,j∼xti,j+et , where et represents random fluctuations in the readout values, due to observational noise, which are taken to be normally distributed. Dynamical changes in state values are given by xti,j=fxt−1i,j,cti,j+vt . Here, fxt−1i,j,c^i,j is a non-linear function that represents interactions between different state variables and the perturbation caused by the test material at a given exposure at concentration c^i,j, and vt represents random fluctuations in state dynamics (which are also normally distributed). Following [Svensson and Schön (2017)], the nonlinear terms are based on an approximation to Gaussian processes, which are obtained using a basis function expansion-based approach. Inference of the model parameters was performed in the framework of Bayesian inference, wherein random draws of the posterior distribution were obtained using Sequential Monte Carlo (SMC), see [Svensson and Schön (2017)] and [Chopin and Papaspiliopoulos (2020)]. For each state space model representing a particular laboratory/readout dataset, SMC simulation was run for three chains at 5,000 iterations each, and first 1,000 iterations were discarded from the final posterior samples. The Rhat convergence diagnostic (Rhat < 1.1) was used to ensure the simulations had converged.
The state space model and posterior model parameter samples were then used to construct posterior predictive distributions of the response of each readout to a given test material for a given concentration and timepoint (see Figure 4). The posterior predictive distributions were used to estimate various statistics on the readout responses (median, 95% credible range etc.), PoDs, Concentration Dependency Scores (CDS) and two Effect Scores (increase and decrease). PoDs were defined as the concentration at which the mean response to a test material exceeded the 95% credible range of control for each timepoint (otherwise the mean response remains within the range of control). PoDs distribution for each timepoint, test material and readout, from which different statistical measures (e.g., the median, 95% credible range etc.) were calculated. The CDS was designed to provide confidence metric in whether an effect in the data was truly concentration dependent.

[13] = test system: EpiAlveolar™ tissues; assay: Histology and immunohistochemistry, EpiAlveolar model, Laboratory 2; settings: Laboratory 2, 12-day period
Description: To evaluate the quality of EpiAlveolar™ tissues over the 12-day experimental period, histological and immunohistochemistry assessments for detection of pan-cytokeratin, vimentin, aquaporin 5, pro-surfactant C, CD68, caspase-3, and/or αSMA were performed by Laboratories 1 and 2.
Tissues were kept in 10% phosphate buffered formalin at 4°C for up to 48 h. Samples were then fixed in 70% ethanol and two strips of membrane were trimmed from each sample, processed, and paraffin-embedded to be cut at 5 µm thick sections and mounted to glass slides. The slides were then dewaxed in xylene, hydrated using graded industrial methylated spirit (70-100%) and stained with H&E for light microscope analysis.
For immunohistochemistry analysis, tissue sections-containing microscope slides were obtained and processed using a Discovery Ultra Staining System (Roche), according to manufacturer’s instructions, except for anti-CD68 staining that was manually performed. The slides were incubated at 60°C for 8 min and then deparaffinized at 69°C for 24 min. After that, slides were incubated with inhibitor CM or peroxidase blocking solution (for anti-CD68 staining) for 8 min at room temperature. The slides were then incubated at room temperature with the following primary monoclonal antibodies, following manufacturer’s instructions: anti-α smooth muscle actin (αSMA) at 1:500 (Leica Microsystems Ltd), anti-CD68 at 1:3000 for macrophages (11192-T24, Sino Biological), anti-pro-surfactant C protein at 1:1000 (AB3786, Sigma-Aldrich), anti-caspase-3 at 1:10000 (AB4051, Abcam), anti-aquaporin 5 (31661, Invitrogen), anti-pan-cytokeratin for epithelial cells (760-2595, Roche), and anti-vimentin for mesenchymal cells (790-2917, Roche). […]
A board-certified pathologist evaluated the changes (epithelial thinning, separation/detachment areas, necrosis, collagen, and presence of apoptotic cells, myofibroblasts, and type II pneumocytes) using a semi-quantitative scoring system (Table 2).

[14] = human, therapeutic dose, infusion of 60 mg/m^2 for 40 min; ref Barpe et al. (2010); cited from earlier work
[15] = test system: EpiAlveolar™ tissues; assay: High-throughput transcriptomics (RNA-seq, PLIER latent variables), EpiAlveolar model, Laboratory 2; format: cell-based, human; settings: for MinPoD: Transcriptomics, biomarker 111
[16] = cited from earlier work
[17] = test system: MucilAir™-HF tissues; assay: TEER analysis of tissue barrier integrity, MucilAir-HF model; settings: Day 4, biomarker TEER
Description: as §5
(§6) For toxicity testing performed over a 12-day experimental period, tissues were daily exposed to 3 different concentrations of each test material for 30 min or 6 h (for detailed information on each material see Table 1). […]
(§7) TEER measurements were performed daily after test item exposure to evaluate tissue barrier function. Tissues were washed, 200 µL of buffered saline solution was added to the apical compartment of MucilAir™-HF cultures, and resistance was measured using an EVOMX volt-ohmmeter with chopstick style probes (World Precision Instruments, Stevenage, UK). […]

[18] = test system: MucilAir™-HF tissues; remark: listed apart in the source
Description: as §5, §6, §7

[19] = day 12, High 1 concentration (third of the tested concentrations)
[20] = day 12, Low concentration (first of the tested concentrations)
[21] = day 12, Medium concentration (second of the tested concentrations)

For `C=CC=O` [Acrolein], the “MMP9 mRNA expression” value [1] is given as “increase of MMP9 mRNA expression”, the “Cytotoxicity (LDH leakage)” value [2] is given as “concentration-dependent cytotoxicity through LDH leakage increase” and the “% of Muc5AC area” value [3, 19] is given as 5.21 ± 2.16%. The “% of Muc5AC area” value [3, 20] was 3.66 ± 1.21%, the “% of Muc5AC area” value [3, 21] was 7.40 ± 1.45% and the “MUC5AC mRNA expression” value [4] was “MUC5AC mRNA expression increase”.

In the case of “Carboxymethylcellulose sodium salt [CMC]”, the BER_min [5] was 2.393 and the “MCC change (in words)” value [6] was “concentration-dependent reduction in the MCC only on day 1”.

For Recombinant human TNF-α (carrier-free), the “Cytokines/chemokines modulated (in words)” value ([7]; 30 min/day exposure) was “upregulation of CCL2 and osteopontin”, the “% of Muc5AC area” value [3, 19] was 5.21 ± 3.28% and the “% of Muc5AC area” value [3, 20] was 8.18 ± 1.54%. The “% of Muc5AC area” value [3, 21] was 9.15 ± 6.07%, the IL-8 protein levels [8] was “increased IL-8 protein levels” and the “IL-6 production protein and mRNA transcript levels” value [9] was “significant increase of IL-6 production protein and mRNA transcript levels”.

For `COc1cccc2c1C(=O)c1c(O)c3c(c(O)c1C2=O)C[C@@](O)(C(=O)CO)C[C@@H]3O[C@H]1C[C@H](N)[C@H](O)[C@H](C)O1` [Doxorubicin, Doxorubicin hydrochloride], the “Cytokines/chemokines modulated (in words)” value ([10]; EpiAlveolar, Laboratory 1) was “tendency towards downregulation of the inflammatory and degradation of extracellular matrix/fibrosis responses; also recorded: dual effect with the anti-inflammatory IL-1ra response”, the MinPoD ([10]; Day 4, biomarker MMP-3) was 0.1566 μg/cm2 and the MinPoD ([10]; Day 8, biomarker MMP-3) was 0.1333 μg/cm2. For the same compound, the MinPoD ([10]; Day 12, biomarker MMP-9) was 0.1298 μg/cm2, the “Cytokines/chemokines modulated (in words)” value ([11]; EpiAlveolar, Laboratory 2) was “tendency towards downregulation of the inflammatory and degradation of extracellular matrix/fibrosis responses” and the MinPoD ([11]; Day 1, biomarker CCL2) was 0.2843 μg/cm2. For the same compound, the MinPoD ([11]; Day 4, biomarker CCL2) was 0.1115 μg/cm2, the MinPoD ([11]; Day 8, biomarker CCL7) was 0.07617 μg/cm2 and the MinPoD ([11]; Day 12, biomarker CCL7) was 0.06864 μg/cm2. The BER_min ([12]; Day 1, EpiAlveolar™ model Laboratory-2) was 0.2187, the BER_min ([12]; Day 1, Transcriptomics) was 0.002215 and the BER_min ([12]; Day 4, EpiAlveolar™ model Laboratory-1) was 0.1204. It also gave a BER_min ([12]; Day 4, EpiAlveolar™ model Laboratory-2) of 0.08579, a BER_min ([12]; Day 4, Transcriptomics) of 0.0005847 and a BER_min ([12]; Day 8, EpiAlveolar™ model Laboratory-1) of 0.1025. The BER_min ([12]; Day 8, EpiAlveolar™ model Laboratory-2) was 0.05859, the BER_min ([12]; Day 8, Transcriptomics) was 0.0006121 and the BER_min ([12]; Day 12, EpiAlveolar™ model Laboratory-1) was 0.09985. The BER_min ([12]; Day 12, EpiAlveolar™ model Laboratory-2) was 0.0528, the BER_min ([12]; Day 12, Transcriptomics) was 0.0005393 and the “Histological changes compared to vehicle and control groups (in words)” value [13] was “minor increase in epithelial thinning and a minor increase in the numbers of degenerate cells were observed by day 4”. For the same compound, the Plasma conc [14] was “Plasma conc 1.3 μM”, the “Median change, 171 - INTRAFLAGELLAR_TRANSPORT” value [15] was 0.04 and the MinPoD ([15]; Day 1) was 0.002879 μg/cm2. The MinPoD ([15]; Day 4) was 0.00076 μg/cm2, the MinPoD ([15]; Day 8) was 0.0007958 μg/cm2 and the MinPoD ([15]; Day 12) was 0.000701 μg/cm2. The Risk ([16]; Scenario Plasma) was “High” and the Risk classification ([16]; per benchmark chemical-exposure scenario (product and exposure scenario of the same line), based on historical safety decisions, ref References column of Table 3) was “High”.

In the case of Benzalkonium chloride [BAC], the “Cytokines/chemokines modulated (in words)” value ([7]; 30 min/day exposure) was “increase in CCL7, IL-1α and IL-6; also recorded: downregulation of MMP-7 only”, the “Cytokines/chemokines modulated (in words)” value ([7]; exposure time/day not given) was “IL-1ra showed upregulated levels” and the MinPoD ([7]; Day 8) was 1.822 μg/cm2. For the same compound, the MinPoD ([7]; Day 12) was 1.409 μg/cm2, the “% of Muc5AC area” value [3, 19] was 3.98 ± 1.12% and the “% of Muc5AC area” value [3, 20] was 5.75 ± 0.93%. The “% of Muc5AC area” value [3, 21] was 5.37 ± 1.06%, the MinPoD [17] was 2.6 μg/cm2 and the “Tissue barrier integrity (TEER) change (in words)” value [18] was “trigger changes in tissue barrier integrity”.
